From the METLIN SMRT retention time set (Domingo-Almenara et al. 2019)

Experiment: gradient 5% acetonitrile 3 min, to 50% in 2 min, to 85% in 15 min, held 3 min, 100 µL/min
Settings: column: Zorbax Extend-C18 2.1 x 50 mm; eluents: water / acetonitrile, 0.1% formic acid
Outline: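 Retention times come from adduct peaks that were picked computationally and then checked by hand. The standards, pure and pooled in mixtures of ~100 molecules, were run on a Zorbax Extend-C18 column (2.1 × 50 mm, 1.8 μm) at 100 μL/min with water and acetonitrile, each with 0.1% formic acid. Detection was by quadrupole time-of-flight mass spectrometry in positive and negative ionization mode, with a dead volume of 40 μL and a dwell volume of 900 μL.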

Row | SMILES | RP-LC retention time [s]
1 | Cc1occc1C(=O)N1CCCn2ccnc2C1C(C)C (stereo not drawn) | 574
2 | O=C(NCC1OCCc2ccccc21)C(=O)Nc1ccc(Br)cc1 (stereo not drawn) | 1070
3 | Oc1ccc([C@@H]2Oc3ccc(O)cc3[C@@H]3CCC[C@@H]32)cc1 | 866
4 | CC(C)Oc1ccc(CNC(=O)c2ccc3c(c2)N(C)C(=O)c2ccccc2O3)cc1 | 958
5 | O=C1NCCCn2cc(S(=O)(=O)Nc3ccc(Cl)cc3F)cc21 | 678
6 | COc1cccc(NC(=O)Cn2nc3cc(C)nc(-c4ccccc4)n3c2=O)c1 | 803
7 | O=C(c1ccc(Br)cc1)N1CCc2cc(-c3ccno3)ccc21 | 1030
8 | Cc1nn(-c2nc(-c3ccc(F)cc3)cs2)c(C)c1CC(=O)Nc1ccccc1 | 1150
9 | Cc1ccccc1NC(=O)Cn1nc(N2CCC(C)CC2)c2ccccc2c1=O | 1110
10 | CCN(CC)S(=O)(=O)c1ccc2nc(NCc3ccc4c(c3)OCO4)cnc2c1 | 964
11 | CCCCCn1c(=O)c2ccccc2n(Cc2nc(-c3cccc(OCC)c3)no2)c1=O | 1350
12 | COc1ccc(-c2csc(C)n2)cc1S(=O)(=O)N1CCc2ccccc2C1 | 970
13 | O=C(Nc1ccc(Cl)c(C(F)(F)F)c1)C(=O)c1ccc[nH]1 | 1050
14 | CCNC(=O)c1nc(Nc2ccc(F)cc2)c2ccccc2n1 | 688
15 | COc1cc(-c2noc(Cn3ncn4nc(-c5ccccc5Cl)cc4c3=O)n2)cc(OC)c1OC | 1060
16 | COc1cccc(NC(=O)Cn2ccnc2-c2ccnc(N3CCCC3)c2)c1 | 602
17 | COC(=O)c1ccccc1NC(=O)NCc1ccccc1 | 855
18 | COc1cc(Nc2c(C#N)cnc3cc(OCCCN4CCN(C)CC4)c(OC)cc23)c(Cl)cc1Cl | 675
19 | Cc1cc(C(=O)NCC23CCCC=C2NC(=O)CC3)n(C)n1 (stereo not drawn) | 636
20 | Cc1ccc(CC(=O)N2CCC3(CC2)NC(=O)c2cc(C)ccc2N3C)cc1 | 852
21 | CCOc1ccc(NC(=O)c2[nH]c(C)c(S(=O)(=O)N3CCCCC3)c2C)cc1 | 979
22 | CN(C)C[C@@H]1CN(C2CCOCC2)C[C@H]1NS(=O)(=O)c1ccc(C#N)cc1 | 524

Row | SMILES | RP-LC retention time [s]
23 | COCCNC(=O)C1CCN(C(=O)c2cc3ccsc3n2Cc2cccc(OC)c2)CC1 | 770
24 | CC(C)(C)n1c(=O)c2ccc(F)cc2n1CC(=O)N1CCN(c2ccccc2)CC1 | 1180
25 | O=C(N[C@@H]1CN(Cc2ccc3c(c2)CCO3)C[C@H]1CO)C1CC1 | 632
26 | COc1ccc(NC(=O)Cn2ncc3c(c2=O)N(C2CC2)C(=O)CS3)cc1OC | 647
27 | Cc1ccccc1-c1cn(CC(=O)NCc2ccc(F)c(Cl)c2)nc1N1CCOCC1 | 920
28 | CN1c2ccccc2C(=O)NC12CCN(C(=O)Nc1cccc(Cl)c1)CC2 | 804
29 | COc1ccc(S(=O)(=O)N2CCN(c3cc(C)nc(N4CCCCC4)n3)CC2)cc1Cl | 768
30 | O=C(CSc1nnc2ccccn12)NCc1ccco1 | 576
31 | CCc1noc([C@@H]2CC(F)(F)CN2C(=O)c2cnco2)n1 | 690
32 | COc1ccc(-c2cn3ccn(-c4ccc(F)cc4)c(=O)c3n2)cc1OC | 738
33 | COc1ccc(-c2noc(CCc3nnc4ccc(N5CCN(C6CCCCC6)CC5)nn34)n2)cc1 | 646
34 | COc1ccc(-c2nc(C3CC(=O)N(c4ccc(OC)cc4)C3)no2)cc1 (stereo not drawn) | 904
35 | CCN1CCCC1CN(CC(=O)N1CCNCC1)S(=O)(=O)c1ccc(Br)cc1 (stereo not drawn) | 583
36 | CN(C)c1cc(C(=O)NC2CCCC2)c2ccccc2n1 | 619
37 | CC(=O)N1c2ccc(S(=O)(=O)N3CCCCC3)cc2CC1C(=O)NCCCN1CCCCC1 (stereo not drawn) | 577
38 | CCc1ccccc1NC(=O)Cn1c(=O)c(CCC(=O)NCC(C)C)nc2ccccc21 | 854
39 | O=S(=O)(Nc1ccc(-c2noc(-c3ccc(Cl)cc3)n2)cc1)c1cccs1 | 1180
40 | O=C(Cc1ccsc1)NCc1cccnc1Oc1ccccc1 | 704
41 | O=C(NCc1nn(Cc2ccccc2)c2ccccc12)c1ccco1 | 853
42 | COc1ccc(-c2noc(C3CCCN3C(=O)Nc3cc(C)ccc3C)n2)cc1 (stereo not drawn) | 1020
43 | CC#CCOC(=O)c1c(C)nc2sc3c(c2c1N)CCC(O)C3 (stereo not drawn) | 662
44 | O=C(Nc1ccc(Br)cc1)N1CCC(N2CCN(Cc3ccccc3)C2=O)CC1 | 893

Row | SMILES | RP-LC retention time [s]
45 | CCc1nnc(-c2ccc3ccn(CC(=O)N4CCN(c5ccc(OC)cc5)CC4)c3c2)o1 | 784
46 | CC1(C)CC(=O)c2cn(-c3ccc(Cl)cc3)c(=O)c(C(=O)N3CCC(N4CCCCC4)CC3)c2C1 | 667
47 | Cn1cc(CCN2CCC(C(=O)N3CCCCCC3)CC2)c2cccnc21 | 595
48 | COc1ccc(CN2CC3(CCN(S(=O)(=O)c4cc(C)ccc4C)CC3)C2=O)cc1 | 932
49 | Cc1ccc(CN2CCN(C3CCN(C(=O)Nc4ccc(F)c(Cl)c4)CC3)C(=O)C2=O)cc1 | 849
50 | COc1ccc(-c2ncc3c(n2)CCN(C(=O)Nc2ccccc2C(F)(F)F)C3)cc1 | 939
51 | CCc1cccc(NC(=O)N(C)CC2CCOC2)c1 (stereo not drawn) | 739
52 | O=C(Cn1cnc2ccccc2c1=O)N1CCCC1 | 612
53 | CC(C)(C)c1noc(-c2ccnc(-n3cnc(C(=O)NC4CCCC4)c3)c2)n1 | 1020
54 | CCc1nc(-c2csc(S(=O)(=O)N3CCCC(C(=O)NCc4ccc(Cl)cc4)C3)c2)no1 (stereo not drawn) | 1030
55 | CNC(=O)N1CCC(C2CCN(C(=O)CN3CCCC3=O)C2)CC1 (stereo not drawn) | 585
56 | COc1ccc(Nc2c(-c3ccc(OC)c(OC)c3)nc3cnccn23)cc1 | 730
57 | CC1(C)C(=O)N(CC(=O)Nc2c3c(nc4ccccc24)CCCC3)c2ccccc21 | 664
58 | COc1ccc2c(c1)C(C)CC(C)(C)N2C(=O)CSc1ncccn1 (stereo not drawn) | 994
59 | COc1ccccc1NC(=O)c1csc2c1CCCC2 | 1190
60 | COc1ccc(-n2c(=O)n(C)c(=O)c3cc(C(=O)NCc4ccccn4)cnc32)cc1 | 600
61 | CCC(C(=O)NCc1ccc(C)o1)n1nc(C)c2c(C)n(-c3ccccc3)nc2c1=O (stereo not drawn) | 862
62 | Cc1ccc(S(=O)(=O)N2CCC3(CC2)NCCN=C3NCc2cc(F)cc(F)c2)cc1 | 734
63 | O=C(CSc1cc(-n2cccn2)ncn1)Nc1cccc(Cl)c1F | 965
64 | COC(=O)c1c(-c2ccccc2)csc1NC(=O)C1CCN(C(C)=O)CC1 | 862
65 | Cc1cc(C)cc(-n2ccnc(NC(=O)Nc3ccc(F)c(Cl)c3)c2=O)c1 | 1150
66 | CC(C)Cc1noc(C2(F)CCN(S(=O)(=O)c3ccccc3Cl)CC2)n1 | 674

Row | SMILES | RP-LC retention time [s]
67 | CN1CCN(CC2CCC3(CCN(S(=O)(=O)c4ccc(C(C)(C)C)cc4)CC3)O2)CC1 (stereo not drawn) | 665
68 | CCOC(=O)Cn1nc(-c2nc(-c3ccc(Cl)cc3)no2)ccc1=O | 1040
69 | CCc1onc(C)c1C1CCCN1C(=O)Nc1ccc(OC)c(OC)c1 (stereo not drawn) | 796
70 | COc1cc(OC)cc(-c2noc(CCn3nc(-c4ccc(Cl)cc4)ccc3=O)n2)c1 | 1060
71 | CC1Cc2ccccc2N1C(=O)c1ccc(=O)n(CCC(=O)NC2CCCCC2)n1 (stereo not drawn) | 793
72 | CCN1C(=O)COc2cc(-c3noc(C(=O)N4CCN(C5CCCCC5)CC4)n3)ccc21 | 652
73 | Fc1ccc(Nc2c(-c3ccc(Cl)cc3)nc3cnccn23)cc1 | 963
74 | CCOc1ccc(C(=O)N2C[C@@H]3C[C@H]2C[C@@H]3NS(=O)(=O)c2ccccc2)cc1 | 764
75 | CCc1ccc(C2=C(C)C(N3CCC(C(=O)NCCc4ccco4)CC3)=NS2(=O)=O)cc1 | 882
76 | Cc1ccc(-c2cn3c(CC(=O)NCc4ccc(F)cc4)csc3n2)cc1C | 843
77 | COc1cccc(NS(=O)(=O)c2ccc(-c3c(C)noc3C)cc2)c1 | 884
78 | CCC(C)c1ccccc1NC(=O)C1CCN(C(=O)C(C)(C)C)CC1 (stereo not drawn) | 829
79 | Cc1nnc2ccc(NC(=O)Nc3ccccc3F)cn12 | 658
80 | CCS(=O)(=O)N1CC(=O)N(c2ccc(F)cc2C)C(C)(C(=O)NC2CCCCCCC2)C1 (stereo not drawn) | 997
81 | CCC1CN(C(=O)N2CCC(C(=O)NCCN3CCN(CC)CC3)CC2)c2ccccc2O1 (stereo not drawn) | 617
82 | CCc1nncn1C1CCN(S(=O)(=O)c2ccc(F)c(C)c2)CC1 | 715
83 | CC1CCN(S(=O)(=O)N2CCC(C(=O)N3CCC(Cc4nncn4C(C)C)CC3)CC2)CC1 | 720
84 | CCN(C(=O)C1CCCN(c2ncnc3c2nc2n3CCCCC2)C1)c1cccc(Cl)c1 (stereo not drawn) | 912
85 | CN(C)CCNC(=O)Cn1c(=O)n(-c2ccccc2)c2ncccc21 | 579
86 | O=C(NCc1ccccc1F)c1ccc(CN2CCN(Cc3ccccc3)C(=O)C2=O)cc1 | 770
87 | Cc1noc(C2CN(C(=O)COc3ccc(Cl)cc3)CC23CCOCC3)n1 (stereo not drawn) | 768
88 | CC1CC(=O)N(CC(=O)Nc2ccc(C(F)(F)F)cc2)c2ccccc2S1(=O)=O (stereo not drawn) | 904
